Results taken from ChEMBL document CHEMBL1201862, “PubChem BioAssay data set” (2004).
The source made the active and inactive calls.

How the values were obtained:
HEK293 [1] = test: cells; details: Homo sapiens
HEK293 [2] = test: cells; details: Homo sapiens; remark: listed apart in the source
[3] = target: T1, DNA repair protein RAD52 homolog (Homo sapiens, UniProt P43351); assay type: functional, biochemical
T1 sequence (P43351 whole entry): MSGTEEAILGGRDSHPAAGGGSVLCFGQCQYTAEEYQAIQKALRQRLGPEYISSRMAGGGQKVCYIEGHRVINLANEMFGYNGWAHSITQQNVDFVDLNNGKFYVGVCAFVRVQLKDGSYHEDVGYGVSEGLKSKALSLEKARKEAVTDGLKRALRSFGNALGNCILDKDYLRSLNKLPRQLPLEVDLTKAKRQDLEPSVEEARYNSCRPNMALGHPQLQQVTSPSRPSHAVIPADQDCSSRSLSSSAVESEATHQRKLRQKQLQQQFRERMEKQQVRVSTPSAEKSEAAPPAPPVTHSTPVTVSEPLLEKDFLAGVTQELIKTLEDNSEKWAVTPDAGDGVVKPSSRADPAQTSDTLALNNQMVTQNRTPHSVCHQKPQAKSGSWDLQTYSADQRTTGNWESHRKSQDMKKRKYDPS

[4] = non-specific 3'UTR reporter inhibition in Clone20-Shn3RL – cell-based, Renilla luciferase, cherry-picked, counter-screen for Shn3 inhibitor project, dose response (AID 624133); assay type: functional
[5] = loss of viability in HepG2 cells – cell-based, CellTiter-Glo, cherry-picked, cytotoxicity control for Shn3 inhibitor project, dose response (AID 624134); assay type: functional
[6] = reduction of Shn3 3'UTR-driven luciferase in osteoblasts – cell-based, Clone20 osteoblasts, firefly luciferase, cherry-picked, dose response (AID 624132); assay type: functional;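 further: firefly luciferase luminescence from reporter carrying the Shn3 3'UTR in osteoblasts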
cells [7] = assay type: functional, cell-based
cells [8] = assay type: functional, cell-based; remark: listed apart in the source
[9] = target: T2, Trace amine-associated receptor 1 (Homo sapiens, UniProt Q96RJ0); test: Counterscreen for agonists of the human trace amine associated receptor 1 (hTAAR1): Fluorescence-based cell-based high throughput dose response assay to identify hTAAR1 agonist that also desensitize TAAR1 receptor response.; assay type: functional
T2 sequence (Q96RJ0 whole entry): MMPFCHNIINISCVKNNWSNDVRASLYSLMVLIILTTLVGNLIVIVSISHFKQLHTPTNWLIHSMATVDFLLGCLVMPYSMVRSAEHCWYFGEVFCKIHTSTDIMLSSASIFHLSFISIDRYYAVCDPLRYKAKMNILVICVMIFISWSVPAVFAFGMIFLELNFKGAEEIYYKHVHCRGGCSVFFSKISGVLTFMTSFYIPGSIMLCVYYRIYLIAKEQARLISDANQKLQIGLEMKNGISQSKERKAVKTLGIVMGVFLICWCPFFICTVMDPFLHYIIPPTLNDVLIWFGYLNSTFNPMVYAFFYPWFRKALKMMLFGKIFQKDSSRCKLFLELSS

[10] = target: T2, Trace amine-associated receptor 1; test: Fluorescence-based cell-based high throughput dose response assay to identify agonists of the human trace amine associated receptor 1 (TAAR1).; assay type: functional
[11] = toxicity toward HepG2 liver cells – cell-based, plate reader, cherry-pick, antagonist series, cytotoxicity control, dose response (AID 743416); assay type: functional
[12] = target: T3, Disintegrin and metalloproteinase domain-containing protein 17 (Homo sapiens, UniProt P78536); test: exosite inhibitors of ADAM17, dose response, biochemical (AID 743260)
[13] = blockers of bursicon-stimulated LGR2 cAMP reporter – cell-based, HEK293, CRE-luciferase reporter, cherry pick, set 2, dose response (AID 743343); assay type: functional;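 further: transfected cells were stimulated with diluted bursicon conditioned medium after compound addition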
[14] = inhibition of ADAM10 peptide cleavage – biochemical, FRET peptide substrate, recombinant human ADAM10, selectivity assay for ADAM17 exosite inhibitor project, dose response (AID 743259);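 further: ADAM10 enzyme cleaving a FRET peptide substrate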
[15] = viability loss in HEK293 cells – cell-based, plate reader, cherry-picked samples, cytotoxicity control, dose response (AID 743446); assay type: functional
[16] = A549 cell cytotoxicity, dose response, cytotoxicity control, plate reader, cherry-pick, antagonist series (AID 743412); assay type: functional, cell-based
H9c2 = test: cells; assay type: functional, cell-based; details: Rattus norvegicus, H9c2, Myocardium;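 further: confirmatory concentration-response retest of ultra-high-throughput screening hits for modulation of myocardial damage; cell death induced by hydrogen peroxide oxidative stress; compound pretreatment for 60 min then peroxide exposure for 2 h; potency is for protecting the cells against peroxide damage rather than for killing them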
[17] = blockade of melanocortin 4 receptor signaling – cell-based, plate reader, cherry pick, counter-screen for LGR2 antagonist project, dose response (AID 743444); assay type: functional;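 further: transfected HEK 293 cells stimulated with alpha-MSH peptide; potency of inhibitors of the alpha-MSH evoked signal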
cells [18] = assay type: functional, cell-based; remark: listed apart in the source
[19] = target: T4, Nuclear receptor subfamily 0 group B member 1 (Homo sapiens, UniProt P51843); assay type: functional, cell-based;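 further: HEK293T cells transfected with SF-1 and DAX-1 plus StAR promoter luciferase reporter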
T4 sequence (P51843 whole entry): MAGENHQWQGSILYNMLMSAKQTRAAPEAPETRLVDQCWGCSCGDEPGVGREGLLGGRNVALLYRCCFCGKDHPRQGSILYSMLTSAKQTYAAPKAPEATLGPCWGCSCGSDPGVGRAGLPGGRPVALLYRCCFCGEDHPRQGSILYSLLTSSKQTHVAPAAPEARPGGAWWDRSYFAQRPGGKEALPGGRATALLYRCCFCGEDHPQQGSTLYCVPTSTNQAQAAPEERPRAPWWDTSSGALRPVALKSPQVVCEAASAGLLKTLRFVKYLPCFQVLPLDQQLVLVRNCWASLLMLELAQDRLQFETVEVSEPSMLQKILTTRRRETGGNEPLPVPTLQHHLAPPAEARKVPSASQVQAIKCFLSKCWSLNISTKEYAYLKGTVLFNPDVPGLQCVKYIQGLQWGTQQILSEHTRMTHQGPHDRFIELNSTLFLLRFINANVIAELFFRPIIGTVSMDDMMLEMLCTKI

cells [20] = test: cells
Major prion protein = Major prion protein (Homo sapiens, UniProt P04156); assay type: functional, cell-based
[21] = target: NAD-dependent protein deacylase sirtuin-5, mitochondrial (Homo sapiens, UniProt Q9NXA8); test: sirtuin-5 deacylation blockers, concentration series – biochemical, fluorescence imaging, cherry-pick, set 5, dose response (AID 720591);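 further: desuccinylation of succinyl peptide AMC substrate read as fluorescence after trypsin release; potency of inhibitors that lower fluorescence and may act on trypsin instead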
[22] = viability of HCT116 lacking mutant beta-catenin – cell-based, human colon tumor, dose response (AID 1045); assay type: functional;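 further: HCT116 colon tumor cells with beta catenin knocked out; cells exposed to compound for 60 hours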
[23] = viability of PTEN-deleted HCT116 cells – cell-based, HCT116 PTEN knockout, dose response (AID 1047); assay type: functional;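 further: HCT116 colon tumor cells with PTEN knocked out; cells exposed to compound for 60 hours before readout; potency for loss of cell viability measured by luminescence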
[24] = target: T3, Disintegrin and metalloproteinase domain-containing protein 17; test: inhibition of ADAM17 substrate cleavage – biochemical, quenched FRET substrate, counter-screen for ADAM10 exosite inhibitor project, dose response (AID 743253)
[25] = Luminescence Cell-Based Dose Retest to Confirm Inhibitors of Cancer Stem Cells. [Related pubchem assays (depositor defined):AID2717, AID2721]; assay type: functional; details: Homo sapiens

Compound: CN(C)CCNC(=O)c1ccc(Cl)c2cc3ccccc3nc12
- EC50 (HEK293 [1]): > 2.21 µM (active)
- EC50 (HEK293 [2]): > 59.7 µM (inactive)
- AC50 [3]: 0.846 µM (active)
- AC50 [4]: 24 µM (active)
- AC50 [5]: 4.37 µM (active)
- AC50 [6]: 9.85 µM (active)

Compound: c1ccc(C2CNCCc3ccccc32)cc1 (configuration not stated)
- IC50 (cells [7]): > 29.9 µM (inactive)
- EC50 (cells [8]): > 29.9 µM (inactive)
- IC50 [9]: 3.36 µM (active)
- EC50 [10]: 1.41 µM (active)

Compound: CCc1nc2ccc(C(=O)Nc3cc(-c4ccccc4)ccc3OC)cn2c1N(C)Cc1nccs1
- AC50 [11]: 51.1 µM (active)
- IC50 [12]: > 69.5 µM (inactive)
- AC50 [13]: 9.18 µM (active)
- IC50 [14]: > 69.5 µM (inactive)
- AC50 [15]: 18.1 µM (active)
- AC50 [16]: 21.6 µM (active)
- IC50 (H9c2): > 79 µM (inactive)
- AC50 [17]: 18.4 µM (active)

Compound: Cc1ccc2c(CN(C)Cc3ccccc3)cc(=O)oc2c1
- IC50 (cells [18]): > 67.6 µM (inactive)
- IC50 [19]: > 67.6 µM (inactive)

Compound: COc1cccc(Nc2nc(C(C)N)cs2)n1 (configuration not stated)
- IC50 (cells [7]): > 29.9 µM (inactive)
- EC50 (cells [8]): > 29.9 µM (inactive)
- IC50 [9]: 4.76 µM (active)
- EC50 [10]: 1.17 µM (active)

Compound: Cc1ccc(Cc2c(-c3ccco3)nc3ccc(Br)cn23)cc1
- IC50 (cells [20]): 56.8 µM (inactive)
- IC50 (Major prion protein): 8.5 µM (active)

Compound: CCc1ccccc1NC(=O)CNC(=O)CNC(=O)c1cccs1
- AC50 [21]: 25.1 µM (active)

Compound: Nc1[nH]c(C(=O)c2ccc(Br)cc2)c(-c2ccc(Cl)cc2[N+](=O)[O-])c1C(=O)NCCc1c[nH]c2ccccc12
- IC50 [12]: > 69.5 µM (inactive)
- IC50 [14]: 9.24 µM (active)

Compound: N#Cc1c(Cl)nc(N/N=C/c2ccccc2)c(Cl)c1Cl
- EC50 [22]: 6.92 µM (active)
- EC50 [23]: 12.1 µM (active)
- IC50 [24]: > 69.5 µM (inactive)

Compound: N=C(N/N=C\c1ccc(F)cc1)N/N=C\c1ccc(F)cc1
- IC50 (cells [7]): > 29.9 µM (inactive)
- AC50 [25]: 5.38 µM (active)
- EC50 (cells [8]): 26.1 µM (inactive)
- IC50 [9]: 4.9 µM (active)
- EC50 [10]: 1.75 µM (active)
